Experiment [1] relates to αSMA gene expression in LL97a cells. Nature of the experiment: qPCR of TGFβ-induced αSMA mRNA in LL97a IPF fibroblasts. As to conditions: small molecules, TGFβ 24 hours, concentration dependent. In kind it is cell-based, human. As for the experimental part: (§1) The ability of select small molecules to lower a TGFβ 1-induced mRNA were tested in assays with the cell line LL97a (ATCC) as follows. LL97a cells were seeded in 96 well plates at 10,000 cells/well in DMEM+10% FBS+1% NaPyr, +1% L-glut, +1% NEAA, +1% HEPES+0.5% Pen/Strep. The following day test articles and controls were added at varying concentrations in assay media of DMEM+0.5% BSA along with 0.5 ng/mL TGFβ1 (PeproTech Inc.) was added to wells. After 24 hours or 48 hours incubation with TGFβ1 at 37 C in a 5% CO2 environment RNA was prepared from cells and QPCR performed for the TGFβ-inducible genes αSMA and elastin as well as the non-inducible control gene RPLPO with a Tagman® Gene Expression Cells-to-CT 1—Step Kit (Life Technologies Inc.) and with a One Step Plus Thermocycler (Applied Biosystems) as per manufacturers' recommendations. Primer probe sets were obtained from ThermoFisher Scientific.
Compounds 2.1 and 171 were covalently attached to an anti-LRRC15 antibody using different protease cleavable PABC linkers. […] Average DAR level of the purified species was determined by analysis via hydrophobic interaction chromatography (HIC) using TSK-gel butyl NPR (Tosoh Bioscience LLC) and by LCMS (Waters Corp.) and they were tested for their ability to reduce αSMA and elastin gene induction by TGFβ in the LL97a and NHLF human fibroblast cell lines using a qPCRassay. […]
In general terms: In qPCR the cycle at which signal appears reflects the starting amount.

The test system of experiment [2] is elastin gene expression in LL97a cells. Nature of the experiment: qPCR of TGFβ-induced elastin mRNA in LL97a IPF fibroblasts. In kind it is cell-based, human. To be noted: small molecules, TGFβ 24 hours, concentration dependent. As for the experimental part: as §1
The subject of experiment [3] is TGFβ/SMAD Signaling Pathway SBE reporter cell line. As to the kind of experiment: TGFβ reporter assay, in vitro small molecule screening (luciferase). In kind it is cell-based. To be noted: TGFβ stimulation, luminescence. In outline: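 SBE luciferase reporter cells (~0.5×10^6 cells/mL) preincubated with compound 5-6 h at 37 °C in 0.5% FBS MEM, then stimulated with TGFβ (12 ng/mL stock) for 18 h. Luminescence read after luciferase substrate; EC50 from curve fits.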
(In general: A reporter such as luciferase makes a cellular process visible.)

The target in the next experiment is T1, TGFBR2 (Homo sapiens, UniProt P37173).
T1 construct: purchased Reaction Biology Corp
T1 sequence (P37173 23-567): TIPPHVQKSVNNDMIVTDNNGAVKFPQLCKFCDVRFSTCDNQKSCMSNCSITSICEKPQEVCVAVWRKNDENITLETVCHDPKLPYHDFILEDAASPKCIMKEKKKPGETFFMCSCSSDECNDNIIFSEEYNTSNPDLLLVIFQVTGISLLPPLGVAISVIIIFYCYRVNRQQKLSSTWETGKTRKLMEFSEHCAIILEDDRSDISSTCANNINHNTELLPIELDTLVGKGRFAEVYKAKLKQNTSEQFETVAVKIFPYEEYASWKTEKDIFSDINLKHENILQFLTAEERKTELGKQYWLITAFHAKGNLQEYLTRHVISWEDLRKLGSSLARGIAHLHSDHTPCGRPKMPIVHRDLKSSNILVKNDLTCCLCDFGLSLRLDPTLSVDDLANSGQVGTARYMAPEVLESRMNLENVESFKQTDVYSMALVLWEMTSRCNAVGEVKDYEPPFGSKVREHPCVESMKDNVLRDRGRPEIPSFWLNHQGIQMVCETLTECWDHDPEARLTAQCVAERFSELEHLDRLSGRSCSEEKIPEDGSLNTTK
As to the kind of experiment: TGFBR2 RBC assay (enzyme inhibition assay, Reaction Biology Corp.). In kind it is biochemical. As to the method: Compounds of the disclosure were also assayed by Reaction Biology Corp. using the TGFBR2 RBC assay (enzyme inhibition assay). […] NT refers to not tested.

Experiment [4] has as its system TGFβ-inducible genes in PANC-1 tumors. As to the kind of experiment: Intra-tumoral injection of TGFβR2 inhibitors, PANC-1 xenograft, RT-qPCR of tumors. It is filed as in vivo, nude mice. To be noted: PANC-1, 2 ug intra-tumoral QD5, tumors 4 h after last injection, vs DMSO vehicle. As to the method: (§2) TGFβR2 inhibitors were tested for their ability to alter expression in vivo of a set of genes reported to be regulated by TGFβ, particularly those associated with tumor CAFs. Two million BXCP3 (ATTC) or 5 million PANC-1 (ATTC) cells in Matrigel (Corning Life Sciences) were inoculated into the flanks of nude mice (JAX Labs) and allowed to grow to approximately 100 mm3 in size before sorting into cohorts for treatment. BXPC3 tumors were treated by intra-tumoral injection (IT) of 2 ug QD5 of either compound 211, compound 171 or equal volume of DMSO vehicle while PANC-1 tumors received 2 ug injections QD5 of compound 211 or vehicle control. Four hours after the last injection tumors were removed and processed for RT-qPCR by homogenization in M tubes (Miltenyi Biotec) using Purelink RNA Kit (Ambion) to isolate RNA and Taqman® RNA to CT 1 Step Kit (Applied Biosystems) with a OneStepPlus Thermocycler. Gene specific primers were obtained from ThermoFisher Scientific. […] Data was analyzed and graphed using GraphPad Prism v8.1.0. Statistical difference for gene mRNA expression between TGFβR2 inhibitor and vehicle treated cohorts was determined using multiple T test comparison with discovery (FDR) by the two-stage linear step-up procedure of Benjamini, Krieger and Yekutieli, with Q=5%. Each row was analyzed individually, without assuming a consistent SD.

Experiment [5] concerns TGFβ-inducible genes in BXPC3 tumors. Nature of the experiment: Intra-tumoral injection of TGFβR2 inhibitors, BXPC3 xenograft, RT-qPCR of tumors. It is filed as in vivo, nude mice. To be noted: BXPC3, 2 ug intra-tumoral QD5, tumors 4 h after last injection, vs DMSO vehicle. As for the experimental part: as §2
The target in the next experiment is T2, full length human LRRC15 (human, UniProt Q8TF66 22-581).
T2 sequence (looked up): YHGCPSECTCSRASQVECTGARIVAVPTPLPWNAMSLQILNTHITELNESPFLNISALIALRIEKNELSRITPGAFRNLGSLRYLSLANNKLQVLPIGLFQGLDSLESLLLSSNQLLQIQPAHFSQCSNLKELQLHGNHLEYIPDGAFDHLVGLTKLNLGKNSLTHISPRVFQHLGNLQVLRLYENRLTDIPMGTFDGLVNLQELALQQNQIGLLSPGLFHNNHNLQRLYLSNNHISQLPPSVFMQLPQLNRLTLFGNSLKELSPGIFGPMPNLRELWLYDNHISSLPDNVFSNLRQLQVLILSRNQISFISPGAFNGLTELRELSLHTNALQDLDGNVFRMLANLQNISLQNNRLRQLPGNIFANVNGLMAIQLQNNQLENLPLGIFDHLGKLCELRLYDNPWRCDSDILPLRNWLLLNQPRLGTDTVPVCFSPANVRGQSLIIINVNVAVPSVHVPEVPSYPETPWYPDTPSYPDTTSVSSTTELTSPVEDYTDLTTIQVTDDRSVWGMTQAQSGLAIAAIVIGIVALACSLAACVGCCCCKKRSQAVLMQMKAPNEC
As to the kind of experiment: cell-based or functional assay.

Entries after “also recorded” stand apart in the source; their conditions may differ. A value given as a limit tells only on which side of the number the result lay.

As a reminder, the EC50 is the concentration at which the effect is half-maximal. The low end stands for an effect from little substance, the high end for a need for much substance. As usually defined, the IC50 is the concentration that inhibits the measured activity by half. For the molecule `Nc1ncc(-c2ccc3c(c2)C(O)CC3)nc1C(=O)Nc1cnccc1N1CCOCC1` (stereo not shown) [Compound 250], the “inhibition of TGFβ-induction of αSMA gene expression” value in experiment [1] was “inhibits”. Also, the “inhibition of TGFβ-induction of elastin gene expression” value in experiment [2] is on record as “inhibits”. In experiment [3], this molecule returned an EC50 of 100 to 1000 nM. The molecule further came in with an IC50 against TGFBR2 of under 50 nM.

`CC(CN)Oc1ccc(-c2cnc(N)c(C(=O)Nc3cnccc3N3CCOCC3)n2)cc1` (stereo not shown) [Compound 211] showed an EC50 in experiment [3] of under 50 nM. In addition, the figures for the “mRNA level of TGFβ-inducible genes in tumors” value in experiment [4] and in experiment [5] were “reduces the mRNA level; also recorded: decreased many TGFβ-inducible gene mRNAs” and “reduce the mRNA level; also recorded: reduced the mRNA level of most TGFβ-inducible genes”, respectively. Moreover, the IC50 at TGFBR2 is under 50 nM.

The molecule `Nc1ncc(-c2ccc3c(c2)CCNC3)nc1C(=O)Nc1cnccc1N1CCOCC1` [Compound 77] returned an EC50 in experiment [3] of 50 to 100 nM. The half-maximal inhibitory concentration (IC50) against TGFBR2 lay within 50 to 100 nM.

`Nc1ncc(-c2ccc(S(=O)(=O)N3CCN(C(=O)OCc4ccccc4)CC3)cc2)nc1C(=O)Nc1cnccc1N1CCOCC1` [Compound 63] yielded an EC50 in experiment [3] of 50 to 100 nM. This molecule came in with an IC50 against TGFBR2 of 100 to 1000 nM.

On to `CC(C)(C)OC(=O)N1CCN(C(=O)c2ccc(-c3cnc(N)c(C(=O)Nc4cnccc4N4CCOCC4)n3)cc2)CC1` [Compound 81], for which the EC50 in experiment [3] was 50 to 100 nM. Besides, the IC50 at TGFBR2 is 100 to 1000 nM.

`Nc1ncc(-c2ccc3c(c2)CC(N)CN3)nc1C(=O)Nc1cnccc1N1CCOCC1` (stereo not shown) [Compound 239] displayed an EC50 in experiment [3] of 100 to 1000 nM. Further, the IC50 against TGFBR2 fell in the range of 50 to 100 nM.

With `CC(C)(C)OC(=O)N[C@@H](Cc1ccc(-c2cnc(N)c(C(=O)Nc3cnccc3N3CCOCC3)n2)cc1)C(=O)O` [Compound 207], in experiment [3], the EC50 was in the range of 100 to 1000 nM. Further, the IC50 at TGFBR2 is under 50 nM.

For the molecule `Nc1ncc(-c2ccc(O[C@@H]3CCCN(C(=O)OCc4ccccc4)C3)cc2)nc1C(=O)Nc1cnccc1N1CCOCC1` [Compound 163], in experiment [3], the EC50 is 100 to 1000 nM. Besides, the IC50 on TGFBR2 is 100 to 1000 nM.

In experiment [3], `Nc1ncc(-c2cccc3c2CCC3)nc1C(=O)Nc1cnccc1N1CCOCC1` [Compound 179] gave an EC50 of over 1000 nM. In addition, the IC50 against TGFBR2 fell in the range of 50 to 100 nM.

With `Nc1ncc(-c2ccc(CCNC(=O)OCc3ccccc3)cc2)nc1C(=O)Nc1cnccc1-c1ccc(=O)[nH]c1` [Compound 22], the EC50 in experiment [3] fell in the range of 50 to 100 nM. Besides, the IC50 on TGFBR2 is 100 to 1000 nM.

Molecule `Nc1ncc(N2CCNCC2)nc1C(=O)Nc1cnccc1N1CCOCC1` [Compound 118] returned an EC50 in experiment [3] of over 1000 nM. The molecule also had an IC50 against TGFBR2 of over 1000 nM.

`NCc1cccc(-c2cnc(N)c(C(=O)Nc3cnccc3N3CCOCC3)n2)c1` [Compound 175] yielded an EC50 in experiment [3] of 100 to 1000 nM. This molecule also registered an IC50 on TGFBR2 of 100 to 1000 nM.

In the case of `Nc1ncc(-c2ccc(OC3CCNCC3)cc2)nc1C(=O)Nc1cnccc1N1CCOCC1` [Compound 167], the EC50 in experiment [3] lay within 50 to 100 nM. Besides, the IC50 at TGFBR2 was under 50 nM.

In experiment [3], `COC1CCN(c2ccncc2NC(=O)c2nc(-c3ccc(CCNC(=O)OCc4ccccc4)cc3)cnc2N)C1` (stereo not shown) [Compound 53] showed an EC50 of over 1000 nM. At TGFBR2, this molecule came in with an IC50 of over 1000 nM.

In turn, `Nc1ncc(-c2ccc(CCNC(=O)OCc3ccccc3)c(F)c2)nc1C(=O)Nc1cnccc1N1CCOCC1` [Compound 46] came in with an EC50 in experiment [3] of 100 to 1000 nM. In addition, the IC50 on TGFBR2 was under 50 nM.

For the molecule `CC(C)(C)OC(=O)N[C@@H](CO)Cc1ccc(-c2cnc(N)c(C(=O)Nc3cnccc3N3CCOCC3)n2)cc1` [Compound 199], the EC50 in experiment [3] is over 1000 nM. On TGFBR2, this molecule showed an IC50 of under 50 nM.

With `COCCCNc1ccncc1NC(=O)c1nc(-c2ccc(CCN)cc2)cnc1N` [Compound 97], in experiment [3], the EC50 was over 1000 nM. Besides, the concentration for half-maximal inhibition (IC50) against TGFBR2 is over 1000 nM.

In experiment [3], `NCC1CCc2cc(-c3cnc(N)c(C(=O)Nc4cnccc4N4CCOCC4)n3)ccc2N1` (stereo not shown) [Compound 244] registered an EC50 of 100 to 1000 nM. At TGFBR2, this molecule came in with an IC50 of under 50 nM.

Consider `NCCc1ccc(-c2cnc(N)c(C(=O)Nc3cnc(N)cc3N3CCOCC3)n2)cc1` [Compound 135], for which the EC50 in experiment [3] is over 1000 nM. This molecule also showed an IC50 against TGFBR2 of over 1000 nM.

`NCCNC(=O)c1ccc(-c2cnc(N)c(C(=O)Nc3cnccc3N3CCOCC3)n2)cc1` [Compound 75] displayed an EC50 in experiment [3] of 100 to 1000 nM. Also, the concentration for half-maximal inhibition (IC50) against TGFBR2 is under 50 nM.

B1: anti-LRRC15 humanized IgG1 M25 antibody with Fc null domain conjugated to LP1 (antibody, V domains shown)
VH: EVQLVQSGAEVKKPGASVKVSCKASGYKFSSYWIEWVKQAPGQGLEWIGEILPGSDTTNYNEKFKDRATFTSDTSINTAYMELSRLRSDDTAVYYCARDRGNYRAWFGYWGQGTLVTVSS
VL: DIQMTQSPSSLSASVGDRVTITCRASQDISNYLNWYQQKPGGAVKFLIYYTSRLHSGVPSRFSGSGSGTDYTLTISSLQPEDFATYFCQQGEALPWTFGGGTKVEIK
modifications: linker-payload LP1 on interchain disulfide cysteines, average DAR 2.5-4
Take B1: the “absolute IC50 of TGFβ1-induced SMAD2 promoter luciferase activity, HEK293 reporter cells expressing human LRRC15” value with full length human LRRC15 was under 10 nM.

B2: anti-LRRC15 humanized IgG1 M25 antibody with Fc null domain conjugated to LP10 (antibody, V domains shown)
VH: B1 VH
VL: B1 VL
modifications: linker-payload LP10 on interchain disulfide cysteines, average DAR 2.5-4
With B2, the “absolute IC50 of TGFβ1-induced SMAD2 promoter luciferase activity, HEK293 reporter cells expressing human LRRC15” value in the experiment with full length human LRRC15 is under 10 nM.

These data come from patent US20220362396A1, “AMINO-PYRAZINECARBOXAMIDE COMPOUNDS, CONJUGATES, AND USES THEREOF” (Silverback Therapeutics, Inc., priority 2018, published 2022).
